# According to ChEMBL document CHEMBL3525949, “Role of organic anion-transporting polypeptides for cellular mesalazine (5-aminosalicylic acid) uptake” (Drug Metab Dispos, 2011):
# Legend:
# Assay type in all cases: ADME, cell-based
# [1] = biological target: T1, Solute carrier organic anion transporter family member 1B1 (Homo sapiens, UniProt Q9Y6L6); assay: Inhibition of human OATP1B1 expressed HEK293 cells assessed as inhibition of [3H]sulfobromophthalein uptake by liquid scintillation counting
# T1 sequence (Q9Y6L6 whole entry): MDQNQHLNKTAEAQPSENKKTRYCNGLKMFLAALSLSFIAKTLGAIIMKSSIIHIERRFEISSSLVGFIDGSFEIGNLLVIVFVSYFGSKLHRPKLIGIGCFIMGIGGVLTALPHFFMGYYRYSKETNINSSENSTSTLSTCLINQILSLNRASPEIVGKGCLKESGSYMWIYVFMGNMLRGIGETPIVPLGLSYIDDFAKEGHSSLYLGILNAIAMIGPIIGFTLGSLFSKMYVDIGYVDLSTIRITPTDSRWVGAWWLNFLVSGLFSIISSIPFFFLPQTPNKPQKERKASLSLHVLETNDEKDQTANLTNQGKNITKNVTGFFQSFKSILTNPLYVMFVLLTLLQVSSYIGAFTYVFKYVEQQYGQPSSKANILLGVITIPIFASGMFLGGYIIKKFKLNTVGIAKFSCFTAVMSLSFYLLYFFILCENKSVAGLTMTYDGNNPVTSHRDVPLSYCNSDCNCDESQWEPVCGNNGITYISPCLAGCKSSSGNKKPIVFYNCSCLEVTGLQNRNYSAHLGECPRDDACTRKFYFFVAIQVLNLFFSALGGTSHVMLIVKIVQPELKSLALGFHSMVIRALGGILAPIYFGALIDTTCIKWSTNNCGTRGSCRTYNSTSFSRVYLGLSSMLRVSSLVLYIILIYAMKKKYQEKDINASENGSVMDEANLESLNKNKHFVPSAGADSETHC
# [2] = biological target: T2, Solute carrier organic anion transporter family member 1A2 (Homo sapiens, UniProt P46721); assay: Inhibition of human OATP1A2 expressed HEK293 cells assessed as inhibition of [3H]sulfobromophthalein uptake by liquid scintillation counting
# T2 sequence (P46721 whole entry): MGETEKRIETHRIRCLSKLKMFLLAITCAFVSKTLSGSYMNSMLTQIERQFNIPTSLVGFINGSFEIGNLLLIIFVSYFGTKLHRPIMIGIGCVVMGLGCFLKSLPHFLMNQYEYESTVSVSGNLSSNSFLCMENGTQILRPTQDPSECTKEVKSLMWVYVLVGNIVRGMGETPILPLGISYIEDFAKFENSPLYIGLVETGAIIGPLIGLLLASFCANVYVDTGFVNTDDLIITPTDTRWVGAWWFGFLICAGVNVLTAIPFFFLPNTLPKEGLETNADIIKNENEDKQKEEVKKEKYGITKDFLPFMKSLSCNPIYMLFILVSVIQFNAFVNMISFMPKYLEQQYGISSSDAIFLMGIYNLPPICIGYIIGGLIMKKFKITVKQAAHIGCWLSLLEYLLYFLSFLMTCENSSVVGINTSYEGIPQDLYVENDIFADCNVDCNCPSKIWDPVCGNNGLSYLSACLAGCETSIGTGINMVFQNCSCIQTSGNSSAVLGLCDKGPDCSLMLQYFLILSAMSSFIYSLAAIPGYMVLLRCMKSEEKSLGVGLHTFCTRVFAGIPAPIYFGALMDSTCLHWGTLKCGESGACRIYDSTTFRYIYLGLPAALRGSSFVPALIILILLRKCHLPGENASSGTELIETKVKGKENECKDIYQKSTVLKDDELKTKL
# [3] = biological target: T3, Solute carrier organic anion transporter family member 1B3 (Homo sapiens, UniProt Q9NPD5); assay: Inhibition of human OATP1B3 expressed HEK293 cells assessed as inhibition of [3H]sulfobromophthalein uptake by liquid scintillation counting
# T3 sequence (Q9NPD5 whole entry): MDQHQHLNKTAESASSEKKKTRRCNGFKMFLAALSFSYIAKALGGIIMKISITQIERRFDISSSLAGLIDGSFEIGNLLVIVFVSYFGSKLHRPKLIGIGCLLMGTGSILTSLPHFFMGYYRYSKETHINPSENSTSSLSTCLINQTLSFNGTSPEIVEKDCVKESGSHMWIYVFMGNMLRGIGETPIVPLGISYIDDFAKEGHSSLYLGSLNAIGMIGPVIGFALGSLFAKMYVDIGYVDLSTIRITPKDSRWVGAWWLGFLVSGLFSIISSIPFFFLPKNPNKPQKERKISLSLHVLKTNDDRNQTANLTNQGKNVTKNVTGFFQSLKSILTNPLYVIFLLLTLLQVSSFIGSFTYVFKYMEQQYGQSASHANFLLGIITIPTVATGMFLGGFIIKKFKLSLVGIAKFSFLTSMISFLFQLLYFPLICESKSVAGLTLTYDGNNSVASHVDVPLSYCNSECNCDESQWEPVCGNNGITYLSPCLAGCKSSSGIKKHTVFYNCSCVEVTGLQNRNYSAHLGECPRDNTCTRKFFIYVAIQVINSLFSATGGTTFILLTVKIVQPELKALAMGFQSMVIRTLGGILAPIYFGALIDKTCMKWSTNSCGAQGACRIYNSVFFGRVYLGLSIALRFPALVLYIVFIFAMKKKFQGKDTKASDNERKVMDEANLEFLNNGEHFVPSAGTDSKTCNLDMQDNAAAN
# [4] = biological target: T4, Solute carrier organic anion transporter family member 2B1 (Homo sapiens, UniProt O94956); assay: Inhibition of human OATP2B1 expressed HEK293 cells assessed as inhibition of [3H]sulfobromophthalein uptake by liquid scintillation counting
# T4 sequence (O94956 whole entry): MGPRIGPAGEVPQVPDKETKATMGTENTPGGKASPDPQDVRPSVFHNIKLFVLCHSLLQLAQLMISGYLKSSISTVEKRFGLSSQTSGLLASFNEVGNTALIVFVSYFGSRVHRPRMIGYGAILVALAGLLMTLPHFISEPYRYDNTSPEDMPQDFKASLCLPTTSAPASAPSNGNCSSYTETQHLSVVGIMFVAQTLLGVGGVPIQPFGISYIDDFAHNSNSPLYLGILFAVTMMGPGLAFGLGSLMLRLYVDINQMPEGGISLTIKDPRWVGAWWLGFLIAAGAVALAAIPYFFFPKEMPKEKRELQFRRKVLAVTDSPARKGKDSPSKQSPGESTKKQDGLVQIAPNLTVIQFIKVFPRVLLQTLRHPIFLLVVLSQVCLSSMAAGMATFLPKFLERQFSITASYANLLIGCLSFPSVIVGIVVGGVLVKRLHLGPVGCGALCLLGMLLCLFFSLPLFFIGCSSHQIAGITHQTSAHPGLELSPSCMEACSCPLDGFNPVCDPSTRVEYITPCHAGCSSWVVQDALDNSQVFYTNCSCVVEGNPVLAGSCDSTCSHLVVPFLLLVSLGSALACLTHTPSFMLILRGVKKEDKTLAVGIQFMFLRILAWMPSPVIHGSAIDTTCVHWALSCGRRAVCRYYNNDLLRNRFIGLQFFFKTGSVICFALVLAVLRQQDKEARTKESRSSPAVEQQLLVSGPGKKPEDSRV
# [5] = biological target: T5, OATP2B1 (Homo sapiens, UniProt O94956); assay: Drug uptake in human OATP2B1 expressed HEK293 cells at 20 uM relative to control cells; conditions: HEK293 cells expressing human OATP2B1, read-out: FC
# T5 sequence (O94956 whole entry): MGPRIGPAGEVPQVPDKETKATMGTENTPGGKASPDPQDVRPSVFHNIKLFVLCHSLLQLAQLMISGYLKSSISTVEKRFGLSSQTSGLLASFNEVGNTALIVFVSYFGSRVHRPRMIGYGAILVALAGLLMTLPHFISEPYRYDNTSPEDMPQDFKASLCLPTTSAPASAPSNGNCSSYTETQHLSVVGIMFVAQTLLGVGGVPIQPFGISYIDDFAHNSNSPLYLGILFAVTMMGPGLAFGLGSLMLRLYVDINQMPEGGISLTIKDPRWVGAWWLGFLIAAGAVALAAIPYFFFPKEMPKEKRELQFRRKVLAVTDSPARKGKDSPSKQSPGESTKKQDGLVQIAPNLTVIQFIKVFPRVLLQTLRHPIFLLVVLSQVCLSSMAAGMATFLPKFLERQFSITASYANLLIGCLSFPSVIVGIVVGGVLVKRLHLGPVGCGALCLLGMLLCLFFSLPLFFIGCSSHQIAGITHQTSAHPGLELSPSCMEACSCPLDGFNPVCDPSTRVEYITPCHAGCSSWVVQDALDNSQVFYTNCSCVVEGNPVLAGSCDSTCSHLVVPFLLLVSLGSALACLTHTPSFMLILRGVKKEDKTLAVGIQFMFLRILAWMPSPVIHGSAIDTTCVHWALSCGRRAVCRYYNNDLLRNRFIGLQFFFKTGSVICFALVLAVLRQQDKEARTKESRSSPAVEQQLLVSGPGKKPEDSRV
# [6] = biological target: T6, OATP1B3 (Homo sapiens, UniProt Q9NPD5); assay: Drug uptake in human OATP1B3 expressed HEK293 cells at 20 uM relative to control cells; conditions: HEK293 cells expressing human OATP1B3, read-out: FC
# T6 sequence (Q9NPD5 whole entry): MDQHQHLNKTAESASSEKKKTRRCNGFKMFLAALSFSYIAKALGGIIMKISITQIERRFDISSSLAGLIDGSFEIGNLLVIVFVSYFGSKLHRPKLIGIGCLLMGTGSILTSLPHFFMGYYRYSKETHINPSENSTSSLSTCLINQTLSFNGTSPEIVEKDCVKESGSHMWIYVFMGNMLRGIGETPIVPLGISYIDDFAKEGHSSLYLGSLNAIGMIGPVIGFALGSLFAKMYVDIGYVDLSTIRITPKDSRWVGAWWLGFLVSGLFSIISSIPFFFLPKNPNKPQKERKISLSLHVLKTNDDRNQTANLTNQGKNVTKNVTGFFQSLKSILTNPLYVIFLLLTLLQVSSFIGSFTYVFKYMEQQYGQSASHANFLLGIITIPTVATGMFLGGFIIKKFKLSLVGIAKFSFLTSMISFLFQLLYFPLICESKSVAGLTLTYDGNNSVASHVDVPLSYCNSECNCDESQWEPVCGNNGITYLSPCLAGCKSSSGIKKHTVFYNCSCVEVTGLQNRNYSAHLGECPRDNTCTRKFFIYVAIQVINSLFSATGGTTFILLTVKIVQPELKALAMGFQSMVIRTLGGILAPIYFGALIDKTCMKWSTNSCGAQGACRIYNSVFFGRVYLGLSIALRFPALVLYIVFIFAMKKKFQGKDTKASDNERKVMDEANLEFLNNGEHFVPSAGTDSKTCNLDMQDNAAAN
# [7] = biological target: T7, OATP1B1 (Homo sapiens, UniProt Q9Y6L6); assay: Drug uptake in human OATP1B1 expressed HEK293 cells at 20 uM relative to control cells; conditions: HEK293 cells expressing human OATP1B1, read-out: FC
# T7 sequence (Q9Y6L6 whole entry): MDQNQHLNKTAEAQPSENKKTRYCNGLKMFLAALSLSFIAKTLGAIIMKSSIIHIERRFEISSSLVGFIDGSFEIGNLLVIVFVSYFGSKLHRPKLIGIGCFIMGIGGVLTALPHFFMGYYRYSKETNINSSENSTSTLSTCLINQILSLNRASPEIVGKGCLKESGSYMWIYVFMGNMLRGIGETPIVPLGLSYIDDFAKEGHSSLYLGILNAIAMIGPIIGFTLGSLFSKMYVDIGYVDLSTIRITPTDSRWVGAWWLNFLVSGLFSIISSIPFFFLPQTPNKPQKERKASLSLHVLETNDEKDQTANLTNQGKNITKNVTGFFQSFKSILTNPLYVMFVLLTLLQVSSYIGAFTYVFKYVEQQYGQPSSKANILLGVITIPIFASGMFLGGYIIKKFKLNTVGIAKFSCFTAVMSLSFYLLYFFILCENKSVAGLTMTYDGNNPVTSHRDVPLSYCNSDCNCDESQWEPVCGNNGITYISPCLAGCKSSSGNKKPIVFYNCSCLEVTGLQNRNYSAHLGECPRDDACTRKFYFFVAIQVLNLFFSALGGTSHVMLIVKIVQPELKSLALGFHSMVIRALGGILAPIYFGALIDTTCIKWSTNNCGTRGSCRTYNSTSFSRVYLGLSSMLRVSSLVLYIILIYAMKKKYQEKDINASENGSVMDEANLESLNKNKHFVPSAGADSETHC
# [8] = biological target: T3, Solute carrier organic anion transporter family member 1B3; assay: Drug uptake in human OATP1B3 expressed HEK293 cells assessed as net uptake measured per mg of protein
# [9] = biological target: T6, OATP1B3; assay: Drug uptake in human OATP1B3 expressed HEK293 cells assessed as net uptake; conditions: HEK293 cells expressing human OATP1B3
# [10] = system: SCLO1B1*1a mutant; assay: Drug uptake in human SCLO1B1*1a mutant expressed HEK293 cells assessed as net uptake; conditions: HEK293 cells expressing human SCLO1B1*1a mutant
# [11] = system: SCLO1B1*1b mutant; assay: Drug uptake in human SCLO1B1*1b mutant expressed HEK293 cells assessed as net uptake; conditions: HEK293 cells expressing human SCLO1B1*1b mutant
# [12] = system: SCLO1B1*5 mutant; assay: Drug uptake in human SCLO1B1*5 mutant expressed HEK293 cells assessed as net uptake; conditions: HEK293 cells expressing human SCLO1B1*5 mutant
# [13] = system: SCLO1B1*15 mutant; assay: Drug uptake in human SCLO1B1*15 mutant expressed HEK293 cells assessed as net uptake; conditions: HEK293 cells expressing human SCLO1B1*15 mutant
# [14] = Drug uptake in human SCLO1B1*1a mutant expressed HEK293 cells assessed as net uptake measured per mg of protein
# [15] = Drug uptake in human SCLO1B1*1b mutant expressed HEK293 cells assessed as net uptake measured per mg of protein
# [16] = Drug uptake in human SCLO1B1*5 mutant expressed HEK293 cells assessed as net uptake measured per mg of protein
# [17] = Drug uptake in human SCLO1B1*15 mutant expressed HEK293 cells assessed as net uptake measured per mg of protein
structure (smiles),measurement,setting,value
Nc1ccc(O)c(C(=O)O)c1 [MESALAMINE],inhibition (INH),[1],Dose-dependent effect
same,inhibition (INH),[2],Dose-dependent effect
same,inhibition (INH),[3],Dose-dependent effect
same,inhibition (INH),[4],Dose-dependent effect
same,uptake ratio at 20 µM,[5],2
same,uptake ratio at 20 µM,[6],2.9
same,uptake ratio at 20 µM,[7],2.7
same,Vmax,[8],85.1 pmol/min
same,Km,[9],77.4 µM
same,Km,[10],55.1 µM
same,Km,[11],16.3 µM
same,Km,[12],24.3 µM
same,Km,[13],32.4 µM
same,Vmax,[14],28.3 pmol/min
same,Vmax,[15],3.8 pmol/min
same,Vmax,[16],6.1 pmol/min
same,Vmax,[17],9.3 pmol/min
